Holding throughout (format): biochemical
In one assay the target is CDK2/CycA2 (Homo sapiens, UniProt P24941). Description: ADP-Glo kinase assay on CDK enzymatic activity, CDK2/CycA2. Conditions: 10 concentrations from 10 μM, 4-fold, 60 min room temperature. An excerpt: (§1) Test samples: the compounds of the present invention, having structures shown above.
(§2) ADP-Glo Kinase Assay (ADP-Glo kinase kit), DMSO (dimethyl sulfoxide), CDK9/CycT1 (cyclin-dependent kinase 9/cyclin T1), CDK tide (cyclin-dependent kinase substrate peptide fragments), CDK1/CycE1 (cyclin-dependent kinase 1/cyclin E1), CDK2/CycA2 (cyclin-dependent kinase 2/cyclin A2), CDK3/CycE1 (cyclin-dependent kinase 3/cyclin E1), CDK4/CycD3 (cyclin-dependent kinase 4/cyclin D3), CDK5/p25NCK (cyclin-dependent kinase 5/p25), and AZD 4573.
(§3) A 384-well white plate, a 96-well plate, a microplate oscillator, a centrifuge, and a microplate reader.
(§4) The compounds were dissolved in DMSO and diluted 4-fold in the 96-well plate to obtain stock solutions with 10 concentration gradients, and added into a 384-well plate system to obtain a series of 10 concentration gradients of compound solutions with final concentrations of 10 μM starting and 4-fold gradient decreasing. 1 μM AZD4573 was used as compound positive control (PC) and 0.5% DMSO as solvent vehicle control (VC), ten duplicated wells each for PC and VC.
(§5) 1 μL of compound solution and 2 μL of 2× kinase solution were transferred to each well, and the plate was centrifuged at 1000 g for 30 s and left at room temperature for 10 min. A mixture of 2× substrate and ATP was prepared in 1× kinase buffer. The reaction was started after adding 2 μL of substrate and ATP into the plate. The plate was centrifuged at 1000 g for 30 s. The assay plate was closed and left at room temperature for 60 min. The reaction system was added with 4 μL of ADP Glo reagent, centrifuged at 1000 rpm for 1 min, and incubated at room temperature for 40 min. The reaction system was added with 8 μL of kinase assay reagent, centrifuged at 1000 rpm for 1 min and incubated at room temperature for 40 min. The […] was read on Biotek.
(§6) The inhibition rate was calculated according to the following formula: […]
(§7) Lumcmpd: compound fluorescence reading; Lumpositive: average value of the fluorescence reading of positive compound control; Lumvehicle: average value of the fluorescence reading of solvent vehicle control.
(§8) IC50 values were fitted using GraphPad 7.0 based on inhibition rates of compounds at different concentrations.

In the next assay the target is CDK1/CycE1 (Homo sapiens, UniProt P06493). Description: ADP-Glo kinase assay on CDK enzymatic activity, CDK1/CycE1. Conditions: ADP-Glo; 10 concentrations from 10 μM, 4-fold; 60 min room temperature; read-out: CDK1/CycE1/nM (IC50). As for the experimental part:
as §1, §3, §4, §5, §6, §7, §8

The target in the next assay is CDK9/CycT1 (Homo sapiens, UniProt P50750). Description: ADP-Glo kinase assay on CDK enzymatic activity, CDK9/CycT1. The conditions noted are these: 10 concentrations from 10 μM, 4-fold, 60 min room temperature.
Excerpt: as §1, §2, §3, §4, §5, §6, §7, §8
(In ADP-Glo the light output rises with the ADP produced.)

CDK1/CycE1, sequence (P06493 whole entry, species assumed): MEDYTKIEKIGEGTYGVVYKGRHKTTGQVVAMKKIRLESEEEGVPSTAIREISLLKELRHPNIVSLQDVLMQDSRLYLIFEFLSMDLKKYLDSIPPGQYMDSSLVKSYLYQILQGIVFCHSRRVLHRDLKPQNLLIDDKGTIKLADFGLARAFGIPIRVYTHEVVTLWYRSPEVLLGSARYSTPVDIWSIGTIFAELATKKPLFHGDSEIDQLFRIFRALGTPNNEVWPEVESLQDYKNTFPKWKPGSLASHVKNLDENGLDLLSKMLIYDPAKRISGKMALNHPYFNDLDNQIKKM
CDK1/CycE1, sequence (P24864 whole entry partner, species assumed): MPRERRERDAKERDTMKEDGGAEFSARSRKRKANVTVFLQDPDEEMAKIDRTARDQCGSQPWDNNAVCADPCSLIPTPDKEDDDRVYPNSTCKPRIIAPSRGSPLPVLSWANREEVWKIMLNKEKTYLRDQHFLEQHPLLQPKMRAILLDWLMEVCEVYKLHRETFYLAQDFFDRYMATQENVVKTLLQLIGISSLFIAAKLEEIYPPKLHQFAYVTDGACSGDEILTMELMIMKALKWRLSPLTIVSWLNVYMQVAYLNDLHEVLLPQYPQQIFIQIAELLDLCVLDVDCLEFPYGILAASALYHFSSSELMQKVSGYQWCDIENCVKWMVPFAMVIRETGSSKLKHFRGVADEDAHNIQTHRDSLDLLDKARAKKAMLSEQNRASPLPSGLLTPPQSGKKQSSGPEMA
CDK9/CycT1, sequence (P50750 whole entry): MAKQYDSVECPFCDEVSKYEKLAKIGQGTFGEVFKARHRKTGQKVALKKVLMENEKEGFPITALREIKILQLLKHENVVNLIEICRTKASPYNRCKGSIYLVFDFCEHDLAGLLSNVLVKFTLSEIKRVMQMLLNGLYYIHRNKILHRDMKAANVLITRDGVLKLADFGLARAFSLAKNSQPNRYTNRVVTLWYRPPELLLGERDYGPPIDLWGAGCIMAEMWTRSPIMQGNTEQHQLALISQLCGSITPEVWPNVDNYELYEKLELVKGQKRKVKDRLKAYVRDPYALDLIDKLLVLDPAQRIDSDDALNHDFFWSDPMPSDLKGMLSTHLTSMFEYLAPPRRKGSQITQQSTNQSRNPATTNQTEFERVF
CDK9/CycT1, sequence (O60563 whole entry partner): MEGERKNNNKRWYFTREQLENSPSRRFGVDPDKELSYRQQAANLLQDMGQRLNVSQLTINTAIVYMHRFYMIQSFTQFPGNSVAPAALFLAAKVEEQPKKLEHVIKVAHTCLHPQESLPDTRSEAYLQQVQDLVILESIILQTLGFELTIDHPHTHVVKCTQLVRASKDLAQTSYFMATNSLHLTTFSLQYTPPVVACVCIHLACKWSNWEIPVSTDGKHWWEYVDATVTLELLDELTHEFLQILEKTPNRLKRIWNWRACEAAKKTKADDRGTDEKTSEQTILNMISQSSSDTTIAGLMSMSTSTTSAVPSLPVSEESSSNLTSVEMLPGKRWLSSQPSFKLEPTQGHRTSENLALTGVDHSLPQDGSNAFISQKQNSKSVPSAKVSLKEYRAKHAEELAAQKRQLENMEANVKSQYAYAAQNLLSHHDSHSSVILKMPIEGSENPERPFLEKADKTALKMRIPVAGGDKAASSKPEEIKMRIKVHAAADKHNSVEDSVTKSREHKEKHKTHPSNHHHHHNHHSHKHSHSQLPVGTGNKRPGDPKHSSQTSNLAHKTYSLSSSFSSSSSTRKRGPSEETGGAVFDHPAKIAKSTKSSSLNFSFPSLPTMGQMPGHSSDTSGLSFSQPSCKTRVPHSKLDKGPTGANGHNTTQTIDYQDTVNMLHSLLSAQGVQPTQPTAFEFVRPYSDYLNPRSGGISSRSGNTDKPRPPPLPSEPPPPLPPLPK

Turning to `CCCNc1nc(C#N)cc2cnc(N[C@H]3C[C@H](N)C3)nc12` [Compound C14, 2-(((1r,3r)-3-aminocyclobutyl)amino)-8-(propylamino)pyrido[3,4-d]pyrimidine-6-carbonitrile], the IC50 against CDK2/CycA2 came out at 32 nM; at CDK1/CycE1 it was 127 nM; against CDK9/CycT1, 2 nM.

In the case of `CC(C)Nc1nc(C#N)cc2cnc(N[C@H]3C[C@](C)(N)C3)nc12` [Compound C26, 2-(((1r,3r)-3-amino-3-methylcyclobutyl)amino)-8-(isopropylamino)pyrido[3,4-d]pyrimidine-6-carbonitrile], the IC50 at CDK2/CycA2 is 93 nM; on CDK1/CycE1, 34 nM; at CDK9/CycT1, 1 nM.

`CC(=O)N[C@H]1C[C@@H](Nc2cc3c(NC(C)C)nc(C#N)cc3cn2)C1` [Compound 167, N-((1s,3s)-3-((7-cyano-5-(isopropylamino)-2,6-naphthyridin-3-yl)amino)cyclobutyl)acetamide]: the IC50 stood at 19 nM against CDK2/CycA2, 55 nM at CDK1/CycE1 and 2 nM against CDK9/CycT1.

Take `N#Cc1cc2cnc(N[C@H]3CCCNC3)cc2c(OC2CCCC2)n1` [Compound 185, (S)-1-(cyclopentyloxy)-7-(piperidin-3-ylamino)-2,6-naphthyridine-3-carbonitrile]: the IC50 on CDK2/CycA2 amounted to 356 nM; at CDK1/CycE1, 134 nM; against CDK9/CycT1 it was 3 nM.

`N#Cc1cc2cnc(N[C@H]3C[C@H](N)C3)nc2c(N2CCCCC2)n1` [Compound C15, 2-(((1r,3r)-3-aminocyclobutyl)amino)-8-(piperidin-1-yl)pyrido[3,4-d]pyrimidine-6-carbonitrile]: the IC50 was determined as 253 nM against CDK2/CycA2, 114 nM at CDK1/CycE1 and 2 nM against CDK9/CycT1.

Consider `CC(C)Nc1nc(C#N)cc2cnc(N[C@H]3C[C@@H](N)C3)cc12` [Compound 164, 7-(((1s,3s)-3-aminocyclobutyl)amino)-1-(isopropylamino)-2,6-naphthyridine-3-carbonitrile], for which the IC50 came to 135 nM against CDK2/CycA2, 138 nM at CDK1/CycE1 and 1 nM against CDK9/CycT1.

Take `CCN(CC)c1nc(C#N)cc2cnc(N[C@H]3CCCNC3)cc12` [Compound 171, (S)-1-(diethylamino)-7-(piperidin-3-ylamino)-2,6-naphthyridine-3-carbonitrile]: the values for the IC50 at CDK2/CycA2, at CDK1/CycE1 and on CDK9/CycT1 were 815 nM, 638 nM and 4 nM, respectively.

Regarding `CC(C)CNc1nc(C#N)cc2cnc(N[C@H]3C[C@H](N)C3)nc12` [Compound C25, 2-(((1r,3r)-3-aminocyclobutyl)amino)-8-(isobutylamino)pyrido[3,4-d]pyrimidine-6-carbonitrile], the IC50 against CDK2/CycA2 stood at 34 nM; at CDK1/CycE1, 86 nM; at CDK9/CycT1, 1 nM.

Take `N#Cc1cc2cnc(N[C@H]3C[C@H](N)C3)nc2c(N[C@@H]2CCOC2)n1` [Compound C13, 2-(((1r,3R)-3-aminocyclobutyl)amino)-8-(((R)-tetrahydrofuran-3-yl)amino)pyrido[3,4-d]pyrimidine-6-carbonitrile]: the IC50 was 85 nM against CDK2/CycA2, 187 nM at CDK1/CycE1 and 2 nM on CDK9/CycT1.

With `N#Cc1cc2cnc(N[C@H]3C[C@H](N)C3)nc2c(NC2CCOCC2)n1` [Compound C30, 2-(((1r,3r)-3-aminocyclobutyl)amino)-8-((tetrahydro-2H-pyran-4-yl)amino)pyrido[3,4-d]pyrimidine-6-carbonitrile], the IC50 amounted to 83 nM against CDK2/CycA2, 99 nM on CDK1/CycE1 and 2 nM against CDK9/CycT1.

For the compound `CC(C)Nc1nc(C#N)cc2cnc(N[C@H]3C[C@H](CN)C3)nc12` [Compound C16, 2-(((1r,3r)-3-(aminomethyl)cyclobutyl)amino)-8-(isopropylamino)pyrido[3,4-d]pyrimidine-6-carbonitrile], the IC50 amounted to 22 nM on CDK2/CycA2, 81 nM on CDK1/CycE1 and 2 nM on CDK9/CycT1.

In the case of `CCNc1nc(C#N)cc2cnc(N[C@H]3C[C@H](N)C3)nc12` [Compound C28, 2-(((1r,3r)-3-aminocyclobutyl)amino)-8-(ethylamino)pyrido[3,4-d]pyrimidine-6-carbonitrile], the results for the IC50 on CDK2/CycA2, at CDK1/CycE1 and against CDK9/CycT1 were 34 nM, 186 nM and 1 nM, respectively.

Consider `N#Cc1cc2cnc(N[C@H]3C[C@@H](N)C3)cc2c(N[C@@H]2CCOC2)n1` [Compound 174, 7-(((1s,3S)-3-aminocyclobutyl)amino)-1-(((R)-tetrahydrofuran-3-yl)amino)-2,6-naphthyridine-3-carbonitrile], for which the IC50 against CDK2/CycA2 came to 510 nM; on CDK1/CycE1, 871 nM; against CDK9/CycT1 it was 2 nM.

For `CC(C)Nc1nc(C#N)cc2cnc(N[C@H]3C[C@](C)(N)C3)cc12` [Compound 209, 7-((trans)-3-amino-3-methylcyclobutyl)amino-1-(isopropylamino)-2,6-naphthyridine-3-carbonitrile], the IC50 on CDK2/CycA2 was determined as 306 nM; on CDK1/CycE1, 170 nM; against CDK9/CycT1, 2 nM.

In the case of `CC(C)Nc1nc(C#N)cc2cnc(Nc3cc(CS(C)(=N)=O)ccn3)cc12` (stereo not drawn) [Compound 170, 1-(isopropylamino)-7-((4-((S-methylsulfonimidoyl)methyl)pyridin-2-yl)amino)-2,6-naphthyridine-3-carbonitrile], the IC50 worked out at 34 nM against CDK2/CycA2, 144 nM at CDK1/CycE1 and 4 nM on CDK9/CycT1.

With `CC(C)Nc1nc(C#N)cc2cnc(N[C@H]3CCCCNC3)nc12` [Compound C6, (S)-2-(azepan-3-ylamino)-8-(isopropylamino)pyrido[3,4-d]pyrimidine-6-carbonitrile], the IC50 is 330 nM against CDK2/CycA2, 202 nM on CDK1/CycE1 and 4 nM against CDK9/CycT1.

With `CC(C)(C)Nc1nc(C#N)cc2cnc(N[C@H]3CCCNC3)nc12` [Compound C7, (S)-8-(tert-butylamino)-2-(piperidin-3-ylamino)pyrido[3,4-d]pyrimidine-6-carbonitrile], the values for the IC50 on CDK2/CycA2, on CDK1/CycE1 and on CDK9/CycT1 were 144 nM, 74 nM and 3 nM, respectively.

For the compound `CC(C)Nc1nc(C#N)cc2cnc(N[C@H]3C[C@H](N(C)C)C3)nc12` [Compound C24, 2-(((1r,3r)-3-(dimethylamino)cyclobutyl)amino)-8-(isopropylamino)pyrido[3,4-d]pyrimidine-6-carbonitrile], the results for the IC50 against CDK2/CycA2, at CDK1/CycE1 and against CDK9/CycT1 were 115 nM, 142 nM and 2 nM, respectively.

For `CC(C)(C)Nc1nc(C#N)cc2cnc(N[C@H]3C[C@H](N)C3)nc12` [Compound C18, 2-(((1r,3r)-3-aminocyclobutyl)amino)-8-(tert-butylamino)pyrido[3,4-d]pyrimidine-6-carbonitrile], the results for the IC50 against CDK2/CycA2, on CDK1/CycE1 and against CDK9/CycT1 were 8 nM, 23 nM and 2 nM, respectively.

Compound `CC(C)Nc1nc(C#N)cc2cnc(N[C@@H]3CCC[C@H]3N)cc12` [Compound 165, 7-(((1R,2R)-2-aminocyclopentyl)amino)-1-(isopropylamino)-2,6-naphthyridine-3-carbonitrile] gave an IC50 against CDK9/CycT1 of 47 nM.

For `N#Cc1cc2cnc(N[C@H]3CCCNC3)cc2c(O[C@H]2CCOC2)n1` [Compound 155, 7-(((S)-piperidin-3-yl)amino)-1-(((S)-tetrahydrofuran-3-yl)oxy)-2,6-naphthyridine-3-carbonitrile], the IC50 at CDK9/CycT1 turned out to be 33 nM.

At CDK9/CycT1, `CC(C)Nc1nc(C#N)cc2cnc(N[C@H]3C[C@](C)(O)C3)nc12` [Compound C11, 2-(((1r,3r)-3-hydroxy-3-methylcyclobutyl)amino)-8-(isopropylamino)pyrido[3,4-d]pyrimidine-6-carbonitrile] showed an IC50 of 1 nM.

In the case of `CCOc1nc(C#N)cc2cnc(N[C@H]3CCCNC3)cc12` [Compound 198, (S)-1-ethoxy-7-(piperidin-3-ylamino)-2,6-naphthyridine-3-carbonitrile], on CDK9/CycT1, the IC50 amounted to 12 nM.

In turn, `CC(C)Oc1nc(C#N)cc2cnc(N[C@H]3CCCNC3)nc12` [Compound C49, (S)-8-isopropoxy-2-(piperidin-3-ylamino)pyrido[3,4-d]pyrimidine-6-carbonitrile] showed an IC50 against CDK9/CycT1 of 20 nM.

For the compound `CC(C)Nc1nc(C#N)cc2cnc(NC3CCS(=O)(=O)CC3)nc12` [Compound 120, 2-((1,1-dioxidotetrahydro-2H-thiopyran-4-yl)amino)-8-(isopropylamino)pyrido[3,4-d]pyrimidine-6-carbonitrile], the IC50 on CDK9/CycT1 stood at 32 nM.

These data come from US20250163043A1 (TRANSTHERA SCIENCES (NANJING), INC., priority 2021, published 2025).
